Test results taken from ChEMBL document CHEMBL3352576, “Synthesis and antitumor activities of novel hybrid molecules containing 1,3,4-oxadiazole and 1,3,4-thiadiazole bearing Schiff base moiety” (Bioorg Med Chem Lett, 2014).

How the values were obtained:
Format in all cases: functional, cell-based
[1] = Antiproliferative activity against human SMMC7721 cells assessed as inhibition of cell proliferation by CCK8 assay; conditions: SMMC-7721
MCF7 = assay: Antiproliferative activity against human MCF7 cells assessed as inhibition of cell proliferation by CCK8 assay
A549 = assay: Antiproliferative activity against human A549 cells assessed as inhibition of cell proliferation by CCK8 assay

Structure (SMILES) | IC50 [1] [µM] | IC50 (MCF7) [µM] | IC50 (A549) [µM]
Oc1ccccc1/C=N/c1nnc(SCc2nnc(-c3ccccc3)o2)s1 | 7.1 | 9.76 | 4.11
Oc1ccccc1/C=N/c1nnc(SCc2nnc(-c3ccc(F)cc3)o2)s1 | 13.1 | 15.6 | 20.1
Oc1ccccc1/C=N/c1nnc(SCc2nnc(-c3ccccc3Cl)o2)s1 | 31.8 | 18.1 | 18.1
Oc1ccccc1/C=N/c1nnc(SCc2nnc(-c3ccc(Cl)cc3)o2)s1 | 2.84 | 7.55 | 30.1
Oc1ccccc1/C=N/c1nnc(SCc2nnc(-c3ccccc3Br)o2)s1 | 6.78 | 9.14 | 7.15
Oc1ccccc1/C=N/c1nnc(SCc2nnc(-c3ccc(Br)cc3)o2)s1 | 18 | 8.32 | 20
Cc1ccccc1-c1nnc(CSc2nnc(/N=C/c3ccccc3O)s2)o1 | 15.5 | 9.36 | 7.85
Cc1cccc(-c2nnc(CSc3nnc(/N=C/c4ccccc4O)s3)o2)c1 | 4.55 | 11.6 | 24.3
Cc1ccc(-c2nnc(CSc3nnc(/N=C/c4ccccc4O)s3)o2)cc1 | 37.1 | 8.75 | 22
COc1cccc(-c2nnc(CSc3nnc(/N=C/c4ccccc4O)s3)o2)c1 | 4.34 | 22 | 8.82
COc1ccc(-c2nnc(CSc3nnc(/N=C/c4ccccc4O)s3)o2)cc1 | 10 | 4.56 | 20.3
COc1cc(-c2nnc(CSc3nnc(/N=C/c4ccccc4O)s3)o2)cc(OC)c1OC | 7.6 | 7.95 | 6.55
O=[N+]([O-])c1cccc(-c2nnc(CSc3nnc(/N=C/c4ccccc4O)s3)o2)c1 | 15.7 | 13.9 | 36.9
O=[N+]([O-])c1ccc(-c2nnc(CSc3nnc(/N=C/c4ccccc4O)s3)o2)cc1 | 16.9 | 4.25 | 4.13
O=c1[nH]cc(F)c(=O)[nH]1 [FLUOROURACIL] | 5.62 |  | 8.13
